Laboratory results: patent US9303033B2, “Pyrazolopyrimidines and related heterocycles as CK2 inhibitors” (SENHWA BIOSCIENCES, INC., priority 2009, dated 2016)
Like-named read-outs stand apart in the source and are kept apart here.

Tests used:
CK2 ααββ = CK2 ααββ (Homo sapiens (Human), UniProt P68400); assay: CK2 assay (cell-free, 33P-ATP, phosphocellulose filter plate); assay type: biochemical
Experimental: Modulatory activity of compounds described herein was assessed in vitro in cell-free CK2 assays by the following method.
Reactions were maintained for 40 min at 23° C. The reactions were quenched with 100 ul of 0.75% Phosphoric acid, then transferred to and filtered through a Phosphocellulose filter plate (Millipore, MSPH-N6B-50). After washing each well 4 times with 0.75% Phosphoric acid, scintillation fluid (20 uL) was added to each well and the residual radioactivity was measured using a Wallac luminescence counter.

MDAMB453 = assay: Cell proliferation assay with Alamar Blue (AB), MDAMB453; assay type: cell-based
Experimental: (§1) A representative cell-proliferation assay protocol using Alamar Blue dye (stored at 4° C., use 20 ul per well) is described hereafter.
(§2) a. Split and trypsinize cells.
(§3) b. Count cells using hemocytometer.
(§4) c. Plate 4,000-5,000 cells per well in 100 μl of medium and seed into a 96-well plate according to the following plate layout. Add cell culture medium only to wells B10 to B12.
(§5) d. Add 100 μl of 2× drug dilution to each well in a concentration shown in the plate layout above. […] Total volume is 200 μl/well.
(§6) e. Incubate four (4) days at 37° C., 5% CO2 in a humidified incubator.
(§7) f. Add […] Alamar Blue reagent to each well.
(§8) g. Incubate for four (4) hours at 37° C., 5% CO2 in a humidified incubator.
(§9) h. Record fluorescence at an excitation wavelength of 544 nm and emission wavelength of 590 nm using a microplate reader.
(§10) In the assays, cells are cultured with a test compound for approximately four days, the dye is then added to the cells and fluorescence of […] dye is detected after approximately four hours. Different types of cells can be utilized in the assays (e.g., HCT-116 human colorectal carcinoma cells, PC-3 human prostatic cancer cells, MDA-MB231 human breast cancer cells, K-562 human chronic myelogenous leukemia (CML) cells, MiaPaca human pancreatic carcinoma cells, MV-4 human acute myeloid leukemia cells, and BxPC3 human pancreatic adenocarcinoma cells).

[1] = system: BxPC3 human pancreatic adenocarcinoma cells; assay: Cell proliferation assay with Alamar Blue (AB), BxPC3; assay type: cell-based
Experimental: as §1, §2, §3, §4, §5, §6, §7, §8, §9, §10

recombinant human PIM2 = recombinant human PIM2 (Homo sapiens (Human), UniProt Q9P1W9); assay: PIM-2 assay (33P-ATP filter binding); assay type: biochemical; conditions: for PIM2: % inh […]: at […] compound
recombinant human PIM2, sequence (Q9P1W9 whole entry): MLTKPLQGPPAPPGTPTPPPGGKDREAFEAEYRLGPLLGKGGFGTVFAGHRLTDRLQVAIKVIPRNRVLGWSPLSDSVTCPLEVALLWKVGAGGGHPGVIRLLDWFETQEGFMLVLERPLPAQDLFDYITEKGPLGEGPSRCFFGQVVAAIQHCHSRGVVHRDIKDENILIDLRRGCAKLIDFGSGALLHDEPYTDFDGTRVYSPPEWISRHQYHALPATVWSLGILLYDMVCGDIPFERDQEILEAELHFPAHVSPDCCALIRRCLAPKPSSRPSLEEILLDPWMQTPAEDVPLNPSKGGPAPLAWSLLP
Experimental: Test compounds dissolved and diluted in DMSO (2 μl) were added to a reaction mixture comprising 10 μl of 5× Reaction Buffer (40 mM MOPS pH 7.0, 5 mM EDTA), 10 μl of recombinant human PIM2 solution (4 ng PIM-2 dissolved in dilution buffer (20 mM MOPS pH 7.0; EDTA 1 mM; 5% Glycerol; 0.01% Brij 35; 0.1%; 0.1% 2-mercaptoethanol; 1 mg/ml BSA)) and 8 ul of water.

[2] = Homo sapiens, MDA-MB-453, MDAMB453 cells, read-out: AB: MDAMB453
[3] = Homo sapiens, BXPC-3, read-out: AB: BxPC3
[4] = PIM2: IC50 (5 μM ATP), 5 μM ATP
[5] = read-out: PIM2: IC50 (5 μM ATP), 5 μM ATP
[6] = MDAMB453 cells, read-out: AB: MDAMB453 IC50
[7] = 5 um ATP, read-out: PIM2: IC50 (5 um ATP)

CK2 ααββ, sequence (P68400 whole entry): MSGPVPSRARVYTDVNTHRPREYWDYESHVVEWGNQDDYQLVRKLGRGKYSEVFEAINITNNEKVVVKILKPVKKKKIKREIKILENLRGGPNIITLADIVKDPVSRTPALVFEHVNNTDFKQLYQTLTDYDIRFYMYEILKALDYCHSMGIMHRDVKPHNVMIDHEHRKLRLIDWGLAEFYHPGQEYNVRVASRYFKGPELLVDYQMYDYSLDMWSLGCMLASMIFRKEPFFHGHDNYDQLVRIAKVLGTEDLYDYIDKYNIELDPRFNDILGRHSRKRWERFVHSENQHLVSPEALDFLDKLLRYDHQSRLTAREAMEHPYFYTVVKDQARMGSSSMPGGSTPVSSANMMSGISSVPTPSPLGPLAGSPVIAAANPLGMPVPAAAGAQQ
CK2 ααββ, sequence (P67870 whole entry partner): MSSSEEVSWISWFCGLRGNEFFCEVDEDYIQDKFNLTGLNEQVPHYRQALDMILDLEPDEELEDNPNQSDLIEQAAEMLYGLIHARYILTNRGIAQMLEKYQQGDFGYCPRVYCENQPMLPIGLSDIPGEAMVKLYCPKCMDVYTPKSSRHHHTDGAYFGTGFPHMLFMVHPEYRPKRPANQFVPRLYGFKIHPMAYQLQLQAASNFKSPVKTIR

SMILES	IC50 (CK2 ααββ)	IC50 (MDAMB453; [2])	IC50 [1, 3]	IC50 (recombinant human PIM2; [4])	further results
C[C@H](Nc1cc(NC2CC2)n2ncc(/C=C3\NC(=O)NC3=O)c2n1)C1CC1 [Example U2]	< 10 nM	12800 nM	> 30000 nM	766 nM	–
O=C1NC(=O)/C(=C/c2cnn3c(NC4CC4)cc(-c4cccc(OCCCO)c4)nc23)N1 [Example B4]	< 10 nM	7870 nM	7910 nM	2170 nM	–
CC(C)(C)OC(=O)c1cccc(Nc2cc(Nc3cccc(Cl)c3)nc3c(/C=C4\NC(=O)NC4=O)cnn23)c1 [Example B7]	< 10 nM	7770 nM	10200 nM	> 2500 nM	–
CNc1cc(-c2cccc(CNC(C)=O)c2)nc2c(/C=C3\NC(=O)NC3=O)cnn12 [Example V4]	< 100 nM	12400 nM	> 30000 nM	> 2500 nM	–
CC1CN(Cc2cc(-c3cc(NC4CC4)n4ncc(C=C5NC(=O)NC5=O)c4n3)cs2)CC(C)O1 (stereo not drawn) [Compound A14]	< 10 nM	–	–	–	IC50 (MDAMB453; MDAMB453 cells, read-out: AB: MDAMB453): 1610 nM; IC50 ([1]; read-out: AB: BxPC3): 1760 nM; IC50 (recombinant human PIM2; [5]): 1570 nM
O=C1NC(=O)C(=Cc2cnn3c(NC4CC4)cc(Nc4ccc(OCCN5CCOCC5)c(Cl)c4)nc23)N1 [Example U42]	< 10 nM	–	–	–	IC50 (MDAMB453; [6]): 1090 nM; IC50 ([1]; read-out: AB: BxPC3 IC50): 2460 nM; PIM2: % inh […] (recombinant human PIM2): 48.912%
CN1C(=O)NC(=Cc2cnn3c(NC4CC4)cc(Nc4ccc(C#N)c(Cl)c4)nc23)C1=O [Example E42]	< 100 nM	–	–	–	IC50 (MDAMB453; [6]): 1290 nM; IC50 ([1]; read-out: AB: BxPC3 IC50): 1970 nM; PIM2: % inh […] (recombinant human PIM2): −72.498%
CC(O)CNc1cc(Nc2cccc(Cl)c2)nc2c(/C=C3\NC(=O)NC3=O)cnn12 (stereo not drawn) [Example K6]	< 1000 nM	936 nM	3160 nM	317 nM	–
O=C1NC(=O)/C(=C/c2cnn3c(NCC4CC4)cc(Nc4ccc(Cl)nc4)nc23)N1 [Example X1]	< 100 nM	6940 nM	7990 nM	> 2500 nM	–
Cc1c(Nc2ccc(-n3cccn3)cc2)nc2c(/C=C3\NC(=O)NC3=O)cnn2c1NC1CC1 [Example E46]	< 100 nM	–	–	–	IC50 (MDAMB453; [6]): 16600 nM; IC50 ([1]; read-out: AB: BxPC3 IC50): 20900 nM; PIM2: % inh […] (recombinant human PIM2): 49.545%
N#Cc1cccc(Cc2cc(NC3CC3)n3ncc(/C=C4\NC(=O)NC4=O)c3n2)c1	< 10 nM	> 30000 nM	19700 nM	–	IC50 (recombinant human PIM2; [7]): > 2500 nM
COc1ccc(Nc2cc(NC3CC3)n3ncc(/C=C4\NC(=O)NC4=O)c3n2)cc1Cl [Example K1]	< 10 nM	7710 nM	5660 nM	> 2500 nM	–
CC(C)N1CCN(C(=O)c2cc(-c3cc(NC4CC4)n4ncc(/C=C5\NC(=O)NC5=O)c4n3)ccc2F)CC1 [Example D5]	< 100 nM	2440 nM	1210 nM	> 2500 nM	–
CC(=O)NC1CCC(Nc2cc(NC3CC3)n3ncc(/C=C4\NC(=O)NC4=O)c3n2)CC1 (stereo not drawn) [Example A3]	< 10 nM	> 30000 nM	> 30000 nM	–	IC50 (recombinant human PIM2; [5]): > 2500 nM
COc1cccc(-c2cc(NC3CC3)n3ncc(/C=C4\NC(=O)NC4=O)c3n2)c1 [Example A5]	< 10 nM	948 nM	1740 nM	–	–
Cc1c(N2CCN(c3ccccn3)CC2)nc2c(C=C3NC(=O)NC3=O)cnn2c1NC1CC1 [Example Q46]	< 10 nM	–	–	–	IC50 (MDAMB453; [6]): > 30000 nM; IC50 ([1]; read-out: AB: BxPC3 IC50): > 30000 nM; PIM2: % inh […] (recombinant human PIM2): 13.151%
O=C1NC(=S)S/C1=C\c1cnn2c(NC3CC3)cc(-c3ccnc(F)c3)nc12	< 1000 nM	> 30000 nM	22700 nM	–	IC50 (recombinant human PIM2; [7]): 1590 nM
O=C1NC(=O)/C(=C/c2cnn3c(NC4CCNC4)cc(Nc4cccc(Cl)c4)nc23)N1 (stereo not drawn) [Example P6]	–	569 nM	1620 nM	–	–
O=C1NC(=O)/C(=C/c2cnn3c(NC4CCN(CCO)CC4)cc(Nc4cccc(Cl)c4)nc23)N1 [Example P5]	< 100 nM	825 nM	16500 nM	> 2500 nM	–
O=C1NC(=O)/C(=C/c2cnn3c(NC4CC4)cc(Nc4cccc(OC(F)(F)F)c4)nc23)N1 [Example E1]	< 10 nM	17700 nM	16800 nM	> 2500 nM	–

SMILES	IC50 (CK2 ααββ)	IC50 (MDAMB453; [2])	IC50 [1, 3]	IC50 (recombinant human PIM2; [4])	further results
O=C1NC(=O)/C(=C/c2cnn3c(NC4CCCC4)cc(Nc4cccc(Cl)c4)nc23)N1 [Example B6]	–	10500 nM	> 30000 nM	–	–
CC(CNc1cc(Nc2ccc(C#N)cc2Cl)nc2c(C=C3NC(=O)NC3=O)cnn12)N1CCOCC1 (racemic) [Example 522]	< 10 nM	–	–	–	IC50 (MDAMB453; [6]): 1520 nM; IC50 ([1]; read-out: AB: BxPC3 IC50): 10400 nM
CCOCCNc1cc(Nc2cccc(Cl)c2)nc2c(/C=C3\NC(=O)NC3=O)cnn12 [Example C6]	–	1140 nM	3800 nM	–	–
CN(C)C(=O)N[C@H]1CC[C@H](Nc2cc(NC3CC3)n3ncc(/C=C4\NC(=O)NC4=O)c3n2)CC1 [Example B3]	< 100 nM	–	–	538 nM	–
O=C1NC(=O)/C(=C/c2cnn3c(NC4CC4)cc(NC(=O)C4CC4)nc23)N1 [Example L2]	< 10 nM	4170 nM	11000 nM	–	–
O=C1NC(=O)/C(=C/c2cnn3c(NCC4(CO)CCCC4)cc(Nc4cccc(Cl)c4)nc23)N1 [Example R6]	< 1000 nM	–	–	1120 nM	–
CC(=O)NC1CCC(Nc2cc(NC3CC3)n3ncc(/C=C4\NC(=O)NC4=O)c3n2)CC1 (stereo not drawn) [Example D3]	< 10 nM	–	–	–	IC50 (recombinant human PIM2; [5]): 476 nM
O=C1NC(=O)/C(=C/c2cnn3c(NC4CC4)cc(NC4CCNCC4)nc23)N1 [Example W2]	< 10 nM	–	–	877 nM	–
COc1cccc(Nc2cc(NC3CC3)n3ncc(/C=C4\NC(=O)NC4=O)c3n2)c1Cl [Example P1]	< 10 nM	–	–	> 2500 nM	–
O=C1NC(=O)/C(=C/c2cnn3c(NCC4CC4)cc(Nc4cc(F)cc(F)c4)nc23)N1 [Example J2]	< 100 nM	–	–	> 2500 nM	–
O=C1NC(=O)/C(=C/c2cnn3c(NC4CC4)cc(Nc4cc(Cl)ccc4F)nc23)N1 [Example Q1]	< 10 nM	–	–	> 2500 nM	–
CC(C)(C)OC(=O)N1CCCC1CNc1cc(Nc2cccc(Cl)c2)nc2c(/C=C3\NC(=O)NC3=O)cnn12 (stereo not drawn) [Example N6]	< 100 nM	–	–	> 2500 nM	–
O=C1NC(=O)/C(=C/c2cnn3c(SCc4ccccc4)cc(-c4cccc(Cl)c4)nc23)N1 [Example Y5]	< 1000 nM	–	–	291 nM	–
Cc1cc(-c2cc(NC3CC3)n3ncc(/C=C4\NC(=O)NC4=O)c3n2)cc(C)c1O [Example C5]	< 1000 nM	–	–	> 2500 nM	–
O=C1NC(=O)/C(=C/c2cnn3c(NC4CC4)cc(N4CCN(c5ccccn5)CC4)nc23)S1 [Example R3]	< 1000 nM	–	–	1820 nM	–
N[C@H]1CC[C@H](Nc2cc(NC3CC3)n3ncc(/C=C4\NC(=O)NC4=O)c3n2)CC1 [Example R2]	< 100 nM	–	–	878 nM	–
O=C1NC(=O)/C(=C/c2cnn3c(NC4CCC4)cc(Nc4cccc(Cl)c4)nc23)N1 [Example G6]	< 1000 nM	–	–	> 2500 nM	–
O=C1NC(=O)/C(=C/c2cnn3c(NCCN4CCOCC4)cc(Nc4cccc(Cl)c4)nc23)N1 [Example L6]	< 2000 nM	–	–	2190 nM	–
O=C1NC(=O)C(=Cc2cnn3c(NC4CC4)nc(OCc4ccccn4)nc23)N1 [Compound M36]	< 10 nM	–	–	–	IC50 (recombinant human PIM2; read-out: PIM2: IC50): > 1000 nM
